The source of these data is BindingDB's records for PubMed 9223589 (University of Tours, 1997).

The structures appear in SMILES notation. Where “and” joins values, the source holds several entries; their conditions need not be identical. Equal values may be shown once.

Assay [1] concerns the target Norepinephrine transporter (Rattus norvegicus, UniProt Q9JIA2).
The target of assay [2] is Sodium-dependent dopamine transporter (Rattus norvegicus, UniProt P23977).
The target in assay [3] is Sodium-dependent serotonin transporter (Rattus norvegicus, UniProt P31652).
Sodium-dependent serotonin transporter, sequence (P31652 whole entry): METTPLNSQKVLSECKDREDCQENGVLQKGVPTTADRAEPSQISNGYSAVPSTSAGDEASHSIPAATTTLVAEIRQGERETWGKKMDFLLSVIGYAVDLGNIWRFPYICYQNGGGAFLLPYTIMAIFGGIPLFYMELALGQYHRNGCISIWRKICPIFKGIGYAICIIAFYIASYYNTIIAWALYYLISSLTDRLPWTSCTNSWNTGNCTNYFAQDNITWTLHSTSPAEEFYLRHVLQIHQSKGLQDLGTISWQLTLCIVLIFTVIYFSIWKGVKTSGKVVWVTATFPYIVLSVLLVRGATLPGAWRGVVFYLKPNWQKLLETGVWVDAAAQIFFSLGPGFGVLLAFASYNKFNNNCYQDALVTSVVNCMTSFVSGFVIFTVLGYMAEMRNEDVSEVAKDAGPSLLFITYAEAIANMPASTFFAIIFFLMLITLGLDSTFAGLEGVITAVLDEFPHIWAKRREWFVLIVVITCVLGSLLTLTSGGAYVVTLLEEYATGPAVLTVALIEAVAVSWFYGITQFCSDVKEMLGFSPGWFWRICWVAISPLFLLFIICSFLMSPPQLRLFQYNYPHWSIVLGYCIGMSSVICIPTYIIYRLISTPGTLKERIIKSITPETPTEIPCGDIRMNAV

Sodium-dependent dopamine transporter, sequence (P23977 whole entry): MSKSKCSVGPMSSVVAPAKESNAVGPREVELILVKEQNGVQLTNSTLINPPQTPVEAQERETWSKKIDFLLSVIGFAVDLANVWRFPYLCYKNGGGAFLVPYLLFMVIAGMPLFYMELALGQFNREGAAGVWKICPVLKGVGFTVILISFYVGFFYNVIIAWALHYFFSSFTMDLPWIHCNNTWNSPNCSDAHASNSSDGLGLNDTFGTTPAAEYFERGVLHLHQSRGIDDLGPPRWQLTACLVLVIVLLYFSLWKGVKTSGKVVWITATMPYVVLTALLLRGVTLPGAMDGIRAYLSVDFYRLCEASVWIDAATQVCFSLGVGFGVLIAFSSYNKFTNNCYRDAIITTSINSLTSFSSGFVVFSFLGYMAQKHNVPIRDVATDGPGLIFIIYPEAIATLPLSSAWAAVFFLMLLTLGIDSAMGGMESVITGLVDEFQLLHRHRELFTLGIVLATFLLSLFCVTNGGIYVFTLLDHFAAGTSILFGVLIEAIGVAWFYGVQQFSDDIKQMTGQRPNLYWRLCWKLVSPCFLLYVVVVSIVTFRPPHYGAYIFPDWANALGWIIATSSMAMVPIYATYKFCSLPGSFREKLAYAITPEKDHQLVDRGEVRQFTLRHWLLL

As usually defined, the Ki is the equilibrium dissociation constant of an inhibitor or competing ligand from its target. Lower therefore signals higher affinity. The molecule `COC(=O)[C@H]1C(c2ccc(Cl)c(Cl)c2)CC2CCC1N2C/C=C/I` (stereo partly drawn) [(2S,8R)-3-(3,4-Dichloro-phenyl)-8-((E)-3-iodo-allyl)-8-aza-bicyclo[3.2.1]octane-2-carboxylic acid methyl ester] displayed a Ki in assay [1] of 0.5 µM.
In the case of `COC(=O)[C@H]1[C@@H](c2ccc(I)cc2)C[C@@H]2CC[C@H]1N2C` [RTI 55, (exo,exo)-isomer, Iodine (125) labeled], the Ki came out at 0.0275 µM in assay [2], 0.08 µM in assay [1] and 0.0031 µM in assay [3].
Take `O[C@]1(c2ccc(Cl)cc2)c2ccccc2C2=NCCN21` [Mazanor]: the inhibition constant Ki in assay [2] was 0.05 µM and 0.012 µM.
